Data on 5 molecules can be found in article PMC6344862, “Hexameric assembly of the AAA+ protein McrB is necessary for GTPase activity” (Nucleic Acids Research, 2018).

In experiment [1] the target is T1, McrB (Escherichia coli, UniProt P15005). The experiment can be described thus: steady-state intrinsic tryptophan fluorescence. Type of experiment: binding. The note with it: 0.5 uM McrB, 1 mM nucleotide, 5 mM MgCl2, pH 8, 25 C.
Experiment [2] concerns the target T2, McrBC (Escherichia coli, UniProt P15005).
T2 construct: gene mcrB; full-length McrB with C-terminal Gly-Ser-His6 plus untagged McrC, mixed 4:1 or SEC-purified complex; tetradecamer 734 kDa; with Type IV methyl-directed restriction enzyme EcoKMcrBC (5-methylcytosine-specific restriction enzyme subunit McrC)
Nature of the experiment: steady-state intrinsic tryptophan fluorescence. Type of experiment: binding. As to conditions: 0.5 uM McrB, 0.125 uM McrC, 1 mM nucleotide, 5 mM MgCl2, pH 8, 25 C.

Experiment [3] addresses T3, McrBΔN (Escherichia coli, UniProt P15005).
T3 construct: gene mcrB; C-terminal Gly-Ser-His6 tag (untagged version for SAXS)
The experiment can be described thus: electron cryomicroscopy 2D class averages, hexamer. Type of experiment: binding. The note with it: 1 mM GDPNP, 1 mM MgCl2, pH 7.4.

Experiment [4] deals with McrB (Escherichia coli, UniProt P15005, E280Q). The experiment can be described thus: SEC-MALS, hexamer with nucleotide. Type of experiment: binding. The note with it: 18 uM protein.
Experiment [5] concerns the target T1, McrB. The experiment can be described thus: SEC, nucleotide-induced oligomerisation. Type of experiment: binding. As to conditions: 18 uM protein, MgCl2, pH 8.
For experiment [6], the target named is T3, McrBΔN. The experiment can be described thus: SEC, nucleotide-induced oligomerisation. It counts as binding. As to conditions: 18 uM protein, MgCl2, pH 8.
In experiment [7] the target is McrB (Escherichia coli, UniProt P15005, E280A). Nature of the experiment: SEC-MALS, hexamer with nucleotide. Type of experiment: binding. As to conditions: 18 uM protein.
The target in experiment [8] is T3, McrBΔN. The experiment can be described thus: malachite green GTPase; SEC and SEC-MALS oligomerisation. It counts as biochemical. As to conditions: 1 mM GTP, 15 mM MgCl2, 50 mM KCl, pH 8, 37 C.
Experiment [9] addresses T3, McrBΔN. Nature of the experiment: SAXS of nucleotide-dependent hexamer. The note with it: McrBΔN without His-tag, 1 mg/ml. It counts as binding.
In experiment [10] the target is T4, McrBΔNC (Escherichia coli, UniProt P15005).
T4 construct: gene mcrB; McrB residues 162-460 (without His6 tag for SEC-MALS and SAXS) plus untagged McrC; tetradecamer 500 kDa; with Type IV methyl-directed restriction enzyme EcoKMcrBC (5-methylcytosine-specific restriction enzyme subunit McrC)
The experiment can be described thus: SAXS of nucleotide-dependent tetradecamer. As to conditions: 1 mg/ml protein. Type of experiment: binding.

For experiment [11], the target named is McrB (full length, C-terminal His6) (Escherichia coli K12) (UniProt P15005). The experiment can be described thus: SEC-MALS; Superose 6 10/300, 0.5 ml/min, 10 mM Tris-Cl pH 7.4, 100 mM NaCl, 1 mM MgCl2, 1 mM DTT, 0.1 mM GTP; McrBC and McrBΔNC complexes run at 0.6 mg/ml.
Experiment [12] has as its target McrBΔN^WT (McrBΔN without His6 tag) (Escherichia coli K12) (UniProt P15005). The experiment is described as above.
Experiment [13] has the same target. The experiment can be described thus: SAXS; 1 mg/ml protein in buffer B100 with GTPγS, 15°C, beamline B21 Diamond; mass by SAXSMoW2.

Consider `Nc1nc2c(ncn2[C@@H]2O[C@H](COP(=O)(O)OP(=O)(O)NP(=O)(O)O)[C@@H](O)[C@H]2O)c(=O)[nH]1` [GDPNP], for which the Trp fluorescence increase in experiment [1] was ~ 20%; in experiment [2] it was ~ 15%. For the same molecule, the “electron cryomicroscopy 2D class averages, hexamer” value in experiment [3] was “Imaging of McrB or McrBΔN after the addition of GDPNP showed round particles”.
Take `Nc1nc2c(ncn2[C@@H]2O[C@H](COP(=O)(O)OP(=O)(O)O)[C@@H](O)[C@H]2O)c(=O)[nH]1` [GDP]: the “SEC-MALS, hexamer with nucleotide” value in [4] and in [7] was “had a mass comparable to wild type McrB hexamer in presence of GTP or GDP” each time. The “SEC, nucleotide-induced oligomerisation” value in experiment [5] was “In presence of GTP or GDP, McrB and McrBΔN eluted as a high molecular mass oligomer”; in [6] it was “In presence of GTP or GDP, McrB and McrBΔN eluted as a high molecular mass oligomer”.
Regarding `Nc1nc2c(ncn2[C@@H]2O[C@H](COP(=O)(O)OP(=O)(O)OP(=O)(O)O)[C@@H](O)[C@H]2O)c(=O)[nH]1` [GTP], the “SEC-MALS, hexamer with nucleotide” value in experiment [4] and in experiment [7] was “had a mass comparable to wild type McrB hexamer in presence of GTP or GDP” in each case. The Trp fluorescence increase in [1] (weak GTPase without McrC) is recorded as ~ 20%; in experiment [2] (GTP hydrolysed by this complex), ~ 15%. Moreover, the “malachite green GTPase; SEC and SEC-MALS oligomerisation” value in experiment [8] is “only a weak GTPase activity for both McrB (Figure 5A) and McrBΔN”.
Take `Nc1nc2c(ncn2[C@@H]2O[C@H](COP(=O)(O)OP(=O)(O)OP(O)(O)=S)[C@@H](O)[C@H]2O)c(=O)[nH]1` [GTPγS]: the values for the Trp fluorescence increase in experiment [1] and in experiment [2] were ~ 30% and ~ 23%, respectively. For the same molecule, the “SAXS of nucleotide-dependent hexamer” value in [9] was “Good quality data was collected for McrBΔN and McrBΔNC in presence of the non-hydrolysable analogue GTPγS”. Besides, the “SAXS of nucleotide-dependent tetradecamer” value in [10] is “Good quality data was collected for McrBΔN and McrBΔNC in presence of the non-hydrolysable analogue GTPγS”.

B1: McrC (natural protein)
chain: MEQPVIPVRNIYYMLTYAWGYLQEIKQANLEAIPGNNLLDILGYVLNKGVLQLSRRGLELDYNPNTEIIPGIKGRIEFAKTIRGFHLNHGKTVSTFDMLNEDTLANRIIKSTLAILIKHEKLNSTIRDEARSLYRKLPGISTLHLTPQHFSYLNGGKNTRYYKFVISVCKFIVNNSIPGQNKGHYRFYDFERNEKEMSLLYQKFLYEFCRRELTSANTTRSYLKWDASSISDQSLNLLPRMETDITIRSSEKILIVDAKYYKSIFSRRMGTEKFHSQNLYQLMNYLWSLKPENGENIGGLLIYPHVDTAVKHRYKINGFDIGLCTVNLGQEWPCIHQELLDIFDEYLK
For B1, the copies of McrB in the complex in experiment [11], in experiment [12] and in experiment [13] was 12 each time. Besides, the copies of McrC in the complex in experiment [11], in experiment [12] and in experiment [13] was 2 each time.
